From EP2653477B1, “SCORPION ACTIVE PEPTIDES AND PREPARATION METHODS AND APPLICATIONS THEREOF” (Wuhan More Biotechnology Co., Ltd., priority 2010, dated 2012) come the findings set out here.

Bridge positions count the residues as written; N and C are the ends. Peptide text beside a SMILES is read from it.

One data set concerns Kunming mice. Description: toxicity study in mice, single intraperitoneal injection, 7 days observation. The data set is classed as in vivo. Conditions: 10 mg/kg intraperitoneally once (100 times the dose for animal model), observed 7 days. How it is done: 18∼20 g Kunming mice were selected, and divided into 4 groups, 8 male mice and 8 female mice for each group. The lyophilized powders of scorpion active polypeptides ADMR-011, ADMR-016, ADMR-019, ADMR-023 and ADMR-028 were dissolved with normal saline respectively, and the 3 groups of mice were injected intraperitoneally once respectively with polypeptide solution at a dose of 10 mg/kg (100 times of the dose for animal model), and the fourth group were injected with equivalent amount of normal saline as control.
After the administration, the respiration, motor and heartbeat in animals of all the groups were all normal, without significant abnormal reaction. 7 days after the administration, all the animals were conducted gross anatomy to observe the volume, color and texture of the main organs (heart, liver, spleen, lung, and kidney), and there was no macroscopic lesion. There were no significant difference between the 3 administration groups and the normal saline group.

The test system of a further data set is Wistar rat EAE model. The data set is described as follows: EAE (multiple sclerosis) model in Wistar rats induced by GPSCH-CFA, clinical scoring. Particulars: 100 µg·kg^-1 subcutaneously once every day, x±s, n=10, score 0-5. The data set is classed as in vivo. The text has this:
Experimental animals: female inbred line Wistar rats (6∼8 week old, body weigh 150±10 g) and guinea pigs (300∼400 g, purchased from Wuhan University Laboratory Animal Center) were selected.
Formulating a mixed emulsion of whole spinal cord homogenate - Freund's complete adjuvant (GPSCH-CFA): a guinea pig was executed, and the spinal cord was rapidly removed, and prepared into 50% PBS homogenate by a ultrasonic disruptor (Sonics & Materials Inc, America), which was mixed with equal amount of Freund's complete adjuvant (BCG vaccine 10 mg/ml), and was pushed back and forth with syringes until forming a water-in-oil emulsion.
Wistar rat EAE model induced by EAE: GPSCH-CFA emulsion was injected intradermally into the foot pads of both the hind legs of Wistar rats, or simultaneously injected intradermally about 1×10^10 pertussis vaccine. The rats were weighed every day, and observed for their neurological symptoms. Experimental autoimmune encephalomyelitis appeared after the rats had been raised for 2 weeks.
The rats with experimental autoimmune encephalomyelitis (EAE) were divided into […] groups randomly: normal control group (negative control group), model control group (model rats + normal saline), administration group A (model rats + ADMR-011 polypeptide), administration group B (model rats + ADMR-016 polypeptide), administration group C (model rats + ADMR-019 polypeptide), administration group D (model rats + ADMR-023 polypeptide), and administration group E (model rats + ADMR-028 polypeptide), 10 rats for each group. For the administration groups, polypeptides ADMR-011, ADMR-016, ADMR-019, ADMR-023 and ADMR-028 were injected subcutaneously respectively at a dose of 100 µg·kg^-1, once every day in the morning. For the normal control group and the model control group, equivalent amount of normal saline was injected subcutaneously, and administered continuously. […] The highest clinical score for each animal was recorded, and the average value of them was taken to be the average clinical score.
The scoring criteria were: without any clinical symptom, 0 point; disappearance of tension in the tail, and observable mild awkward gait, 1 point; weakness in both the hind limbs, which can recover after passive body flipping, 2 points; paralysis in both the hind limbs, which can not recover after passive body flipping, 3 points; tetraplegia accompanied by incontinence of urine and feces, 4 points; moribund state or death, 5 points. Table 1. Scores for rats of various experimental groups in the EAE model (-x±s)

The next data set deals with rheumatoid arthritis. The data set is described as follows: pristane-induced rheumatoid arthritis in SD rats, joint score and hind foot plantar swelling. The data set is classed as in vivo. More on the design: key to Score of joint: clinical score 1-4: 1 joint red/swollen=1 ... severe whole-limb arthritis=4. Conditions: x±s, n=10; for Score of joint: arthritis rats, polypeptides 100 µg·kg^-1 (methotrexate 1.75 µg·kg^-1) subcutaneously once every day, score 1-4; for The swelling degree after the inflammation: volume difference of hind foot before and after the modeling. As to the method:
[…] Female (♀) specific pathogen free (SPF) inbred line SD rats (Wuhan University Laboratory Animal Center), body weight 150±10 g, were selected, and pristane was injected intradermally at the base of the tail of rats in experimental groups at a dose of 0.2 ml/rat, after they were acclimatized in a clean-grade environment for 1 week. Rheumatoid arthritis appeared after the rats were raised for only 2 weeks.
The rats having arthritis were randomized into: normal control group (negative control group), model negative control group (model rat + normal saline), model positive control group (model rat + methotrexate), administration group A (model rat + ADMR-011 polypeptide), administration group B (model rat + ADMR-016 polypeptide), administration group C (model rat + ADMR-019 polypeptide), administration group D (model rat + ADMR-023 polypeptide), and administration group E (model rat + ADMR-028 polypeptide), 10 rats for each group. The administration groups were injected subcutaneously at a dose of 100 µg·kg^-1, once every day in the morning, and administered continuously; the normal control group and the model negative control group were injected subcutaneously with equivalent amount of normal saline; and the model positive control group were injected subcutaneously with methotrexate (MTX) at a dose of 1.75 µg·kg^-1, once every day, and administered continuously.
The highest clinical score for each animal was recorded, and the average value of them was taken to be the average clinical score. The scoring criteria were: one joint of a rat was red and swollen, 1 point; two joints of a rat were red and swollen, 2 points; all the joints of a rat were red and swollen, 3 points; severe arthritis in the entire limb of a rat, 4 points. Table 2. Arthritis scores for rats of various experimental groups (-x±s)
From day 8 of the experiment, the hind foot plantar volume of the rat was measured and recorded every other day for 21 consecutive days, and the swelling degree (mL) was calculated according to the volume difference before and after the modeling. Table 3. The swelling degree of rats in various experimental groups (-x±s)

A further data set has as its target T1, potassium channel Kv1.3 (Homo sapiens, UniProt P22001).
T1 construct: expressed in transfected cells; host or cells: COS-7 cells, selected with 0.8 mg/mL geneticin
Description: whole-cell patch clamp, inhibition of Kv1.3 current in transfected COS-7 cells. The data set is classed as cell-based. Particulars: potassium channel Kv1.3 in COS-7 cells, read-out: polypeptide concentrations that inhibit the current by half (IC50 value). How it is done: COS-7 cells were cultured in a DMEM medium containing 10% fetal calf serum, at 37° C, 5% CO2. The recombinant plasmids of potassium channel Kv1.3 were transfected by using a Sofast™ transfection kit, and the transfected cells were selectively cultured in a medium containing 0.8 mg/mL geneticin. The pharmacological activities of scorpion active polypeptides ADMR-011, ADMR-016, ADMR-019, ADMR-023 and ADMR-028 were tested and analyzed by using an instrument of whole-cell patch clamp (EPC-10 dual-channel patch clamp amplifier HEKA, Elektronik, Lambrecht, Germany). The setting of the experimental parameters, the collecting of data, and the applying of stimulus were all controlled by Pulse software (Elektronik, Lambrecht, Germany). The filter of the instrument was set to be 10 kHz (Bessel), and the electrode impedance was 2∼5 MΩ. After the formation of giga-seal (1∼5 GΩ) between the electrode and cell membrane, an automatic c-fast was performed, and the membrane was broken by slightly applying negative pressure, then an automatic c-slow was performed. At a holding potential of -70 mV, depolarizing pulses, incrementing in 10 mV steps, with a step width of 80 ms , were given to stimulate from -60 mV to +50 mV, and the condition of current was observed. The polypeptides ADMR-011, ADMR-016 and ADMR-019 were accurately perfused, which was achieved by MPS-2 (INBIO Inc, Wuhan, China) perfusing system. After dissolving the three scorpion active polypeptides, they were applied by spraying via DAD Drug Application System (ALA), and the tip of the tube for drug application was about 100 µm away from the cell being recorded.
It can be known from Figure 16 to Figure 20 that, the pharmacological activity of ADMR-011 on potassium channel Kvl.3 was 91 pM, the pharmacological activity of ADMR-016 on potassium channel Kvl.3 was 2.58 nM, the pharmacological activity of ADMR-019 on potassium channel Kv1.3 was 1.41 nM, and the pharmacological activity of ADMR-023 and ADMR-028 on potassium channel Kvl.3 were 0.49 nM and 0.65 nM, respectively. Therefore, they are polypeptides with potent activity that are currently found internationally.
On the technique in general: Patch clamp records ionic current or voltage across a cell membrane.

T1 sequence (P22001 whole entry): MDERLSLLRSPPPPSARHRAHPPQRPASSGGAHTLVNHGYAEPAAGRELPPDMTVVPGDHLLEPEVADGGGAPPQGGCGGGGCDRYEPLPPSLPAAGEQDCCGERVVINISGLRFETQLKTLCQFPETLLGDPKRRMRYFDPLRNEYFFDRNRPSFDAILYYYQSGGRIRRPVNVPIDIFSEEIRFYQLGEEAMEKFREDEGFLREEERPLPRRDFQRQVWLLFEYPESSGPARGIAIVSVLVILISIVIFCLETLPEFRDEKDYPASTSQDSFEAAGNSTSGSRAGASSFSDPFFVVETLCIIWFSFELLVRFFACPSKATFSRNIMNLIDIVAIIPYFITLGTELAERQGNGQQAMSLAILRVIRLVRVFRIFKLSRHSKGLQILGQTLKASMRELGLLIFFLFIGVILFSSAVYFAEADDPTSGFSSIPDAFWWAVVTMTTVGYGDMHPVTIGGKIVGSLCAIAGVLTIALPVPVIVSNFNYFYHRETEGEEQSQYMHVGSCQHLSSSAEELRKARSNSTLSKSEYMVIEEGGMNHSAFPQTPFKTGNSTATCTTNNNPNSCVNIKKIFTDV

`CC[C@H](C)[C@H](NC(=O)CNC(=O)[C@@H](N)C(C)C)C(=O)N[C@@H](CC(N)=O)C(=O)N[C@H](C(=O)N[C@@H](CCC(N)=O)C(=O)N[C@H]1CSSC[C@@H]2NC(=O)[C@H](CCC(N)=O)NC(=O)CNC(=O)[C@H](Cc3ccccc3)NC(=O)[C@H](CCCNC(=N)N)NC(=O)[C@H](CCSC)NC(=O)CNC(=O)[C@H](C)NC(=O)[C@H](CC(=O)O)NC(=O)[C@H](CCCCN)NC(=O)[C@@H]3CSSC[C@@H](C(=O)N[C@H](C(=O)N4CCC[C@H]4C(=O)N[C@@H](CCCCN)C(=O)O)[C@@H](C)O)NC(=O)[C@H](CC(=O)O)NC(=O)[C@H](CSSC[C@H](NC(=O)[C@H](CCC(N)=O)NC(=O)CNC(=O)[C@H](CO)NC(=O)[C@H](Cc4c[nH]cn4)NC(=O)[C@H](CC(N)=O)NC1=O)C(=O)N[C@@H](CC(C)C)C(=O)N[C@@H](CCCCN)C(=O)N1CCC[C@H]1C(=O)N3)NC(=O)[C@H](CCCCN)NC(=O)CNC(=O)[C@H](CC(N)=O)NC(=O)[C@H]([C@@H](C)CC)NC2=O)C(C)C` [ADMR-023] (H-VGINVQCNHSGQCLKPCKDAGMRFGQCINGKCDCTPK-OH; disulfide 7-27, 13-32, 17-34 (inferred); N-terminus and C-terminus assumed): the toxicity in mice entry with Kunming mice is “no significant toxicity”. For the same compound, the Average clinical scores turned out to be 0.55±0.19 with Wistar rat EAE model (8 d), 0.81±0.29 in the data set on Wistar rat EAE model (10 d), 1.21±0.25 with Wistar rat EAE model (12 d) and 1.17±0.27 with Wistar rat EAE model (14 d). Besides, the Score of joint is on record as 1.69±0.23 with rheumatoid arthritis (10 d), 2.23±0.71 in the data set on rheumatoid arthritis (15 d) and 1.85±0.59 in the data set on rheumatoid arthritis (21 d). For the same compound, the “The swelling degree after the inflammation” value with rheumatoid arthritis (d8) came to 0.035 ± 0.010 mL; in the data set with rheumatoid arthritis (d15), 0.25 ± 0.08 mL; in the data set on rheumatoid arthritis (d22) it was 0.32 ± 0.14 mL; in the data set on rheumatoid arthritis (d28), 0.29 ± 0.15 mL. The IC50 at potassium channel Kv1.3 came out at 0.49 nM.

As to `CC[C@H](C)[C@H](NC(=O)CNC(=O)[C@@H](N)C(C)C)C(=O)N[C@@H](CC(N)=O)C(=O)N[C@H](C(=O)N[C@@H](CCC(N)=O)C(=O)N[C@H]1CSSC[C@@H]2NC(=O)[C@H](CCC(N)=O)NC(=O)CNC(=O)[C@H](Cc3ccccc3)NC(=O)[C@H](CCCNC(=N)N)NC(=O)[C@H](CCSC)NC(=O)CNC(=O)[C@H](C)NC(=O)[C@H](CC(=O)O)NC(=O)[C@H](CCCCN)NC(=O)[C@@H]3CSSC[C@@H](C(=O)N[C@H](C(=O)N4CCC[C@H]4C(=O)N[C@@H](CCCCN)C(=O)O)[C@@H](C)O)NC(=O)[C@H](CC(=O)O)NC(=O)[C@H](CSSC[C@H](NC(=O)[C@H](CCC(N)=O)NC(=O)[C@H](CCCNC(=N)N)NC(=O)[C@H](CO)NC(=O)CNC(=O)[C@H](CC(N)=O)NC1=O)C(=O)N[C@@H](CC(C)C)C(=O)N[C@@H](CCCCN)C(=O)N1CCC[C@H]1C(=O)N3)NC(=O)[C@H]([C@@H](C)O)NC(=O)CNC(=O)[C@H](CC(N)=O)NC(=O)[C@H]([C@@H](C)CC)NC2=O)C(C)C` [ADMR-019] (H-VGINVQCNGSRQCLKPCKDAGMRFGQCINGTCDCTPK-OH; disulfide 7-27, 13-32, 17-34 (inferred); N-terminus and C-terminus assumed), the toxicity in mice result in the data set with Kunming mice is on record as “no significant toxicity”. Moreover, the Average clinical scores came out at 0.53±0.16 with Wistar rat EAE model (8 d), 0.93±0.46 in the data set with Wistar rat EAE model (10 d), 1.19±0.51 in the data set with Wistar rat EAE model (12 d) and 1.37±0.34 in the data set with Wistar rat EAE model (14 d). For the same compound, the Score of joint in the data set with rheumatoid arthritis (10 d) was found to be 1.78±0.48; with rheumatoid arthritis (15 d), 2.17±0.55; in the data set on rheumatoid arthritis (21 d), 1.81±0.77. Further, the “The swelling degree after the inflammation” value came out at 0.034 ± 0.011 mL with rheumatoid arthritis (d8), 0.27 ± 0.07 mL in the data set on rheumatoid arthritis (d15), 0.34 ± 0.11 mL in the data set on rheumatoid arthritis (d22) and 0.37 ± 0.13 mL in the data set with rheumatoid arthritis (d28). Further, on potassium channel Kv1.3, the IC50 turned out to be 1.41 nM.
